Holding throughout (assay): growth of human tumour cells (NCI), 48 h
Test [1] deals with SK-MEL-5.
Test [2] has as its system 786-0.
The test system of test [3] is MDA-MB-231.
For test [4], the system named is M14.
Test [5] concerns HOP-62.
The test system of test [6] is SR.
Test [7] concerns SF-295.
In test [8] the test system is PC-3.
The test system of test [9] is A549.
In test [10] the test system is TK-10.
The subject of test [11] is NCI-H460.
The subject of test [12] is DU-145.
Test [13] deals with Malme-3M.
Test [14] deals with RPMI-8226.
In test [15] the test system is SNB-75.
Test [16] has as its system Hs-578T.
Test [17] deals with ACHN.
The subject of test [18] is SK-OV-3.
The subject of test [19] is EKVX.
Test [20] relates to A498.

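Values below derive from 48-hour exposures of cells grown in 96-well plates, with endpoints linearly interpolated between the two concentrations bracketing the appropriate inhibition level. The concentration for 50% growth inhibition is given as GI50.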 Calls of active or inactive are those of the source. No stated cut-off is given here; in the data, active = GI50 up to about 1.1 µM and inactive = higher.

Consider `CC(=O)NC1C(OCc2ccccc2)OC(CO)C(O)C1OC(C)C(=O)NC(C)C(=O)NC(CCC(=O)NCCCNc1c2ccccc2nc2cccc([N+](=O)[O-])c12)C(N)=O` (stereo not given), for which the GI50 was 1010 nM (active) in [1]; 2770 nM (inactive) in test [2]; 1360 nM (inactive) in [3]; 1970 nM (inactive) in test [4]; 1910 nM (inactive) in [5]; 5480 nM (inactive) in [6]. Further, the GI50 in test [7] is 3260 nM (inactive); in [8], 618 nM (active); in [9], 1430 nM (inactive); in test [10], 2940 nM (inactive); in [11] it was 258 nM (active); in test [12], 1560 nM (inactive). The GI50 in test [13] is 2210 nM (inactive); in [14], 590 nM (active); in test [15], 1990 nM (inactive); in [16] it was 6780 nM (inactive); in [17], 792 nM (active); in test [18], 7260 nM (inactive). The GI50 was 3570 nM (inactive) in [19] and 2010 nM (inactive) in test [20].
As to `CCN(CC)c1ccc(/C=C2\CCc3ccc([N+](=O)[O-])cc3C2=O)cc1`, the GI50 was 1710 nM (inactive) in test [1]; 2840 nM (inactive) in [2]; 2610 nM (inactive) in [3]; 3540 nM (inactive) in test [4]; 471 nM (active) in test [5]; 324 nM (active) in [6]. Further, the GI50 is 1400 nM (inactive) in test [7]; 1970 nM (inactive) in test [8]; 4580 nM (inactive) in test [9]; 2860 nM (inactive) in [10]; 3840 nM (inactive) in test [11]; 6010 nM (inactive) in test [12]. Besides, the GI50 in test [13] was 2520 nM (inactive); in test [14], 391 nM (active); in test [15], 2520 nM (inactive); in test [16], 1260 nM (inactive); in test [17], 8850 nM (inactive); in test [18] it was 4540 nM (inactive). In addition, the values for the GI50 in [19] and in test [20] were 5270 nM (inactive) and 2560 nM (inactive), respectively.
As to `CC(C)=CCC[C@@H](C)C1=C(Nc2ccccc2Cl)C(=O)C(C)=C(O)C1=O`, the GI50 was 1950 nM (inactive) in test [1]; 1810 nM (inactive) in test [2]; 4610 nM (inactive) in [3]; 6150 nM (inactive) in [4]; 3450 nM (inactive) in test [5]; 1200 nM (inactive) in test [6]. Besides, the GI50 was 2880 nM (inactive) in test [7]; 4850 nM (inactive) in test [8]; 3240 nM (inactive) in test [9]; 4880 nM (inactive) in [10]; 2430 nM (inactive) in test [11]; 6640 nM (inactive) in test [12]. Also, the GI50 in [13] was 4290 nM (inactive); in test [14], 1170 nM (inactive); in test [15] it was 1870 nM (inactive); in test [16], 3420 nM (inactive); in [17], 2260 nM (inactive); in test [18], 5140 nM (inactive). In addition, the GI50 was 3120 nM (inactive) in test [19] and 5420 nM (inactive) in [20].

For the origin of these results see ChEMBL document CHEMBL1201862, “PubChem BioAssay data set” (2004).
